pIC50: −log10 of the molar value. Values after ≈ are worked out from the molar mass of the structure shown.
Tests used:
in vitro [1] = conditions: human, plasma
Description: Protein binding in human plasma at 2 uM after 6 hrs by LC-MS/MS analysis

Mus musculus [2] = experiment: Toxicity in human HGC27 cells xenografted in BALB/c nude mouse assessed as reduction in body weight at […], po administered once daily for 15 days measured at post last dose; format: organism-based; conditions: in vivo, 360 h
in vivo [3] = conditions: ICR, mouse, plasma, po, 30 mg/kg
Salmonella typhimurium [4] = experiment: Mutagenicity in Salmonella typhimurium TA1535 at 500 ug/plate after 72 hrs by Ames test; format: toxicity, organism-based; conditions: salmonella enterica subsp. enterica serovar typhimurium
U-87 MG [5] = experiment: cells; format: functional, cell-based, U-87MG ATCC; conditions: Homo sapiens, 96 h
Description: Cytotoxicity against human U87MG cells after 96 hrs by MTT assay

HGC-27 [6] = experiment: Antitumor activity against human HGC27 cells xenografted in BALB/c nude mouse assessed as tumor growth inhibition at […], po administered once daily for 15 days measured at post last dose relative to control; format: functional; conditions: HGC-27, po, 360 h, read-out: TGI
Salmonella typhimurium [7] = experiment: Mutagenicity in Salmonella typhimurium TA1535 up at 50 ug/plate after 72 hrs in presence of S9 fraction by Ames test; format: toxicity, organism-based; conditions: salmonella enterica subsp. enterica serovar typhimurium, s9, 72 h
U-87 MG [8] = experiment: Antitumor activity against Luc tagged human U87MG cells xenografted in BALB/c nude mouse glioblastoma orthotopic model assessed as tumor growth inhibition at 5 mg/kg, po qd by MRI method relative to control; format: functional, U-87MG ATCC; conditions: read-out: TGI
NCI-H460 [9] = experiment: cells; format: functional, cell-based; conditions: Homo sapiens, NCI-H460, 96 h
Description: Cytotoxicity against human NCI-H460 cells after 96 hrs by MTT assay

in vivo [10] = conditions: ICR, mouse, brain, po, 30 mg/kg
[11] = mouse, in vivo, po, 10 mg/kg, 24 h
T98G = experiment: cells; format: functional, cell-based; conditions: Homo sapiens, 96 h
Description: Cytotoxicity against human T98G cells after 96 hrs by MTT assay

A549 = experiment: cells; format: functional, cell-based; conditions: Homo sapiens, A549, 96 h
Description: Cytotoxicity against human A549 cells after 96 hrs by MTT assay

Cytochrome P450 2E1 = Cytochrome P450 2E1 (Homo sapiens, UniProt P05181)
Cytochrome P450 2E1, sequence (P05181 whole entry): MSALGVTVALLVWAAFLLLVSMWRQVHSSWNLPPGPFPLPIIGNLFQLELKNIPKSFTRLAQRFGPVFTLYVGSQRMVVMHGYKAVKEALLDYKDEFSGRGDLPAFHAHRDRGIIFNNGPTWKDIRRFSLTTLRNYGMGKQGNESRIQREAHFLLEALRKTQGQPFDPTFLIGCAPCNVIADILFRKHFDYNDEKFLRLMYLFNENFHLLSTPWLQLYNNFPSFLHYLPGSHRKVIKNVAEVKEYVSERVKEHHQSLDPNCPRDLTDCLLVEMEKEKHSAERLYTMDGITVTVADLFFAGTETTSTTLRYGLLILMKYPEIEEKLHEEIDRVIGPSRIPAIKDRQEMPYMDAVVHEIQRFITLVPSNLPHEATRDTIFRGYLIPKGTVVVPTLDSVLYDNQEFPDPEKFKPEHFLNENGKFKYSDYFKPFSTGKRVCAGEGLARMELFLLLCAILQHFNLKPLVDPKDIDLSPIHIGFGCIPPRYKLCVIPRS
Description: Inhibition of CYP2E1 in human liver microsomes assessed as reduction in 6-Hydroxychlorzoxazone formation using chlorzoxazone as substrate after 10 to 20 mins in presence of NADPH by LC-MS/MS analysis

in vivo [12] = conditions: ICR, mouse, plasma, iv, 3 mg/kg
Description: Volume of distribution at steady state in ICR mouse plasma at 3 mg/kg, iv by LC/MS/MS analysis

PC-3 = experiment: cells; format: functional, cell-based; conditions: Homo sapiens, PC-3, 96 h
Description: Cytotoxicity against human PC3 cells after 96 hrs by MTT assay

Salmonella typhimurium [13] = experiment: Mutagenicity in Salmonella typhimurium TA98 at 500 ug/plate after 72 hrs by Ames test; format: toxicity, organism-based; conditions: salmonella enterica subsp. enterica serovar typhimurium
NCI-H460 [14] = experiment: Antitumor activity against human NCI-H460 cells xenografted in po dosed athymic BALB/c nude mouse administered as single dose via gavage after 2 to 24 hrs; format: functional, organism-based
Cytochrome P450 1A2 = target: T1, Cytochrome P450 1A2 (Homo sapiens, UniProt P05177)
T1 sequence (P05177 whole entry): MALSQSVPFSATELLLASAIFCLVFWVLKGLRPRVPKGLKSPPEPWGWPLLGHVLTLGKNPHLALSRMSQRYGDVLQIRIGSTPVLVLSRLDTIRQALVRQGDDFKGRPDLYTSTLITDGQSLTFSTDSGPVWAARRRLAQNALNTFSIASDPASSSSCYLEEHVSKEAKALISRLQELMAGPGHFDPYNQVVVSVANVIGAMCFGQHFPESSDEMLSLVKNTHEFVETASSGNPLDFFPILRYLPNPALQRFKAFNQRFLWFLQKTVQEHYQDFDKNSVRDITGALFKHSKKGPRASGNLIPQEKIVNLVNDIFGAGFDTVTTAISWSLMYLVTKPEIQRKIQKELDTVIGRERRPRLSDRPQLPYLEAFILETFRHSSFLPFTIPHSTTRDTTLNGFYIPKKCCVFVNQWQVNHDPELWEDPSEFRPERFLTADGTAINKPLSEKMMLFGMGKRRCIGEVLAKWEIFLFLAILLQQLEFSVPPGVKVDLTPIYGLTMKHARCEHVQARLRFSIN
Description: Inhibition of CYP1A2 in human liver microsomes assessed as reduction in acetaminophen formation using phenacetin as substrate after 10 to 20 mins in presence of NADPH by LC-MS/MS analysis

U-251 = experiment: cells; format: functional, cell-based; conditions: Homo sapiens, U-251, 96 h
Description: Cytotoxicity against human U251 cells after 96 hrs by MTT assay

in vivo [15] = conditions: ICR, mouse, plasma, po, 30 mg/kg; remark: listed apart in the source
in vitro [16] = conditions: ICR, mouse, plasma
Description: Protein binding in ICR mouse plasma at 2 uM after 6 hrs by LC-MS/MS analysis

HGC-27 [17] = experiment: Antitumor activity against human HGC27 cells xenografted in BALB/c nude mouse assessed as tumor growth inhibition at 5 mg/kg, po administered once daily for 15 days measured at post last dose relative to control; format: functional; conditions: HGC-27, po, 360 h, read-out: TGI
MGC-803 [18] = experiment: Antitumor activity against human MGC803 cells xenografted in BALB/c nude mouse assessed as tumor growth inhibition at 10 mg/kg, po administered once daily for 18 days measured at post last dose relative to control; format: functional; conditions: MGC-803, po, 432 h, read-out: TGI
Mus musculus [19] = experiment: Toxicity in human MGC803 cells xenografted BALB/c nude mouse assessed as reduction in body weight at 5 to 20 mg/kg, po administered daily for 18 days measured at post last dose; format: organism-based; conditions: in vivo, 432 h
MGC-803 [20] = experiment: Antitumor activity against human MGC803 cells xenografted in BALB/c nude mouse assessed as tumor growth inhibition at 20 mg/kg, po administered once daily for 18 days measured at post last dose relative to control; format: functional; conditions: MGC-803, po, 432 h, read-out: TGI
Mus musculus [21] = experiment: Toxicity in human NCI-H460 cells xenografted BALB/c nude mouse assessed as reduction in body weight at 5 to 20 mg/kg, po administered once daily after 16 days; format: organism-based; conditions: in vivo, 384 h
HGC-27 [22] = experiment: Antitumor activity against human HGC27 cells xenografted in BALB/c nude mouse assessed as tumor growth inhibition at 10 mg/kg, po administered once daily for 15 days measured at post last dose relative to control; format: functional; conditions: HGC-27, po, 360 h, read-out: TGI
NCI-H460 [23] = conditions: Homo sapiens
Description: Antitumor activity against human NCI-H460 cells xenografted in po dosed BALB/c nude mouse assessed as tumor growth inhibition administered once daily after 16 days

NCI-H460 [24] = experiment: Antitumor activity against human NCI-H460 cells xenografted in BALB/c nude mouse assessed as tumor growth inhibition at 10 mg/kg, po administered once daily after 16 days relative to control; format: functional; conditions: 384 h, read-out: TGI
MGC-803 [25] = conditions: Homo sapiens
Description: Antitumor activity against human MGC803 cells xenografted in po dosed BALB/c nude mouse assessed as tumor growth inhibition administered once daily measured at post last dose

NCI-H460 [26] = experiment: Antitumor activity against human NCI-H460 cells xenografted in BALB/c nude mouse assessed as tumor growth inhibition at 20 mg/kg, po administered once daily after 16 days relative to control; format: functional; conditions: 384 h, read-out: TGI
NCI-H460 [27] = experiment: Antitumor activity against human NCI-H460 cells xenografted in BALB/c nude mouse assessed as tumor growth inhibition at 5 mg/kg, po administered once daily after 16 days relative to control; format: functional; conditions: 384 h, read-out: TGI
Mus musculus [28] = experiment: Toxicity in human HGC27 cells xenografted BALB/c nude mouse assessed as reduction in body weight at 10 mg/kg, po administered once daily for 15 days measured at post last dose; format: organism-based; conditions: in vivo, 360 h

SMILES | Cmax (in vivo [3]) [ng/mL] | pIC50 (U-87 MG [5]) | inhibition in vivo at 5 mg/kg (U-87 MG [8]) [%] | pIC50 (NCI-H460 [9]) | Cmax (in vivo [10]) [ng/g] | pIC50 (T98G) | pIC50 (A549) | pIC50 (Cytochrome P450 2E1) | Vd (in vivo [12]) [L/kg] | pIC50 (PC-3) | pIC50 (Cytochrome P450 1A2) | pIC50 (U-251) | Tmax (in vivo [15]) [min] | inhibition in vivo at 10 mg/kg (HGC-27 [22]) [%] | other results
CNc1nc(C)c2cc(-c3cnc(OC)c(NS(=O)(=O)c4ccc(F)cc4F)c3)cc(OC3CCOCC3)c2n1 | 12800 | 6.60 | 96 | 7.23 | 723 | 6.41 | 6.96 | < 5.00 | 0.763 | 6.42 | < 5.00 | 6.15 | 10.8 | – | fraction unbound at 6 h, 2 µM (in vitro [1]): 0.0454; Activity (Mus musculus [2]): Toxic; Activity (Salmonella typhimurium [4]): Toxic; inhibition in vivo at […] (HGC-27 [6]): 94.1%; Activity (Salmonella typhimurium [7]): Toxic; AUC [11]: 5576 ng·h/g; Activity (Salmonella typhimurium [13]): Toxic; IC50 (NCI-H460 [14]): 0.034 µg/mL (≈ 0.0595 µM); fraction unbound at 6 h, 2 µM (in vitro [16]): 0.0842
COc1ncc(-c2cc(O[C@@H]3CCOC3)c3nc(N)nc(C)c3c2)cc1NS(=O)(=O)c1ccc(F)cc1F | 8830 | 6.59 | – | 7.03 | – | 6.55 | 7.08 | < 5.00 | 2.57 | 6.55 | < 5.00 | 6.85 | 4.8 | 74.7 | inhibition in vivo at 5 mg/kg (HGC-27 [17]): 36.1%; inhibition in vivo at 10 mg/kg (MGC-803 [18]): 69.3%; Activity (Mus musculus [19]): Toxic; inhibition in vivo at 20 mg/kg (MGC-803 [20]): 77.8%; Activity (Mus musculus [21]): Toxic; TGI (NCI-H460 [23]): Dose-dependent effect; inhibition in vivo at 10 mg/kg (NCI-H460 [24]): 83.1%; TGI (MGC-803 [25]): Dose-dependent effect; inhibition in vivo at 20 mg/kg (NCI-H460 [26]): 75.9%; inhibition in vivo at 5 mg/kg (NCI-H460 [27]): 41.9%
CNc1nc(C)c2cc(-c3cnc(OC)c(NS(=O)(=O)c4ccc(F)cc4F)c3)cc(O[C@@H]3CCOC3)c2n1 | 5390 | 6.40 | 89.4 | – | 433 | 6.39 | 6.92 | < 5.00 | 1.56 | 6.62 | < 5.00 | 6.34 | 15 | 94.6 | Activity (Mus musculus [28]): Toxic
